{"source": "ChEMBL document CHEMBL3232891", "about": "“Medicinal attributes of pyrazolo[3,4-d]pyrimidines: a review” (Bioorg Med Chem, 2013)", "key": {"[1]": {"experiment": "Cytotoxicity against human Saos2 cells after 48 hrs by MTT assay", "assay_type": "functional, cell-based", "conditions": "SAOS-2, 48 h"}, "[2]": {"experiment": "Cytotoxicity against human Saos2 cells assessed as inhibition of cell viability at 25 uM after 48 hrs by MTT assay relative to control", "assay_type": "functional", "conditions": "SAOS-2, 48 h"}, "Daoy": {"system": "Daoy", "experiment": "Cytotoxicity against human DaOY cells after 48 hrs by MTS assay", "assay_type": "functional, cell-based"}, "NCI-H226": {"system": "NCI-H226", "experiment": "Growth inhibition of human NCI-H226 cells", "assay_type": "functional"}, "[3]": {"experiment": "Growth inhibition of human NPC-TW01 cells", "assay_type": "functional"}, "Jurkat": {"system": "Jurkat", "experiment": "Growth inhibition of human Jurkat cells", "assay_type": "functional"}, "[4]": {"system": "Mycobacterium tuberculosis", "experiment": "Antitubercular activity against Mycobacterium tuberculosis assessed as growth inhibition", "assay_type": "functional"}, "Enterococcus raffinosus": {"system": "Enterococcus raffinosus", "experiment": "Antibacterial activity against Enterococcus raffinosus", "assay_type": "functional"}, "Staphylococcus aureus": {"system": "Staphylococcus aureus", "experiment": "Antibacterial activity against Staphylococcus aureus", "assay_type": "functional"}, "HL-60": {"system": "HL-60", "experiment": "Cytotoxicity against human HL60 cells by MTT assay", "assay_type": "functional, cell-based"}}}
{"compound": "CC(C)(C)n1nc(-c2ccc(Cl)cc2)c2c(N)ncnc21", "values": [{"measurement": "IC50", "setting": "[1]", "result": 8.07, "unit": "µM"}, {"measurement": "inhibition at 25 µM", "setting": "[2]", "result": 85.3, "unit": "%"}]}
{"compound": "CCCCNc1ncnc2c1cnn2CC(Cl)c1ccccc1", "note": "(configuration not stated)", "values": [{"measurement": "IC50", "setting": "[1]", "result": 14.6, "unit": "µM"}, {"measurement": "IC50", "setting": "Daoy", "result": 6.24, "unit": "µM"}, {"measurement": "inhibition at 25 µM", "setting": "[2]", "result": 71.1, "unit": "%"}]}
{"compound": "COc1ccc(-c2nn(-c3ccc4ccccc4n3)c3ncncc23)cc1", "values": [{"measurement": "GI50", "setting": "NCI-H226", "result": 37, "unit": "µM"}, {"measurement": "GI50", "setting": "[3]", "result": 36, "unit": "µM"}, {"measurement": "GI50", "setting": "Jurkat", "result": "> 100", "unit": "µM"}]}
{"compound": "C#CCn1ncc2c(SCc3ccccc3)ncnc21", "values": [{"measurement": "inhibition (INH)", "setting": "[4]", "result": ">90", "unit": "%"}, {"measurement": "MIC", "setting": "[4]; Mycobacterium tuberculosis", "result": 12.5, "unit": "µg/mL"}]}
{"compound": "Fc1ccc(CNc2ncnc3c2cnn3CC(Cl)c2ccc(Cl)cc2)cc1", "note": "(configuration not stated)", "values": [{"measurement": "IC50", "setting": "Daoy", "result": 1.72, "unit": "µM"}]}
{"compound": "COc1ccc(-c2nc(-c3ccccc3)nc3[nH]nc(N)c23)cc1", "values": [{"measurement": "MIC", "setting": "Enterococcus raffinosus", "result": 14.2, "unit": "µM"}, {"measurement": "MIC", "setting": "Staphylococcus aureus", "result": 4.2, "unit": "µM"}]}
{"compound": "CSc1nc(Nc2cccc(Cl)c2)c2cnn(CC(Cl)c3ccccc3)c2n1", "note": "(configuration not stated)", "values": [{"measurement": "IC50", "setting": "[1]", "result": 11.6, "unit": "µM"}, {"measurement": "inhibition at 25 µM", "setting": "[2]", "result": 93.3, "unit": "%"}]}
{"compound": "COc1cccc2c1C(=O)c1c(O)c3c(c(O)c1C2=O)C[C@@](O)(C(=O)CO)C[C@@H]3O[C@H]1C[C@H](N)[C@H](O)[C@H](C)O1", "note": "[DOXORUBICIN]", "values": [{"measurement": "IC50", "setting": "HL-60", "result": 0.55, "unit": "µM"}]}
{"compound": "Fc1cccc(CNc2ncnc3c2cnn3CC(Cl)c2ccc(Br)cc2)c1", "note": "(configuration not stated)", "values": [{"measurement": "IC50", "setting": "Daoy", "result": 3.5, "unit": "µM"}]}
{"compound": "Nc1n[nH]c2nc(-c3ccccc3)nc(-c3ccc(Cl)cc3)c12", "values": [{"measurement": "MIC", "setting": "Enterococcus raffinosus", "result": "> 300", "unit": "µM"}, {"measurement": "MIC", "setting": "Staphylococcus aureus", "result": 190, "unit": "µM"}]}
{"compound": "Clc1ccc(-c2nn(-c3ccc4ccccc4n3)c3ncncc23)cc1", "values": [{"measurement": "GI50", "setting": "NCI-H226", "result": 39, "unit": "µM"}, {"measurement": "GI50", "setting": "[3]", "result": 35, "unit": "µM"}, {"measurement": "GI50", "setting": "Jurkat", "result": 69, "unit": "µM"}]}
{"compound": "Nc1n[nH]c2nc(-c3ccccc3)nc(-c3ccc(Br)cc3)c12", "values": [{"measurement": "MIC", "setting": "Enterococcus raffinosus", "result": 12.3, "unit": "µM"}, {"measurement": "MIC", "setting": "Staphylococcus aureus", "result": 3.8, "unit": "µM"}]}
{"compound": "Cc1ccc(-c2nn(-c3ccc4ccccc4n3)c3ncncc23)cc1", "values": [{"measurement": "GI50", "setting": "NCI-H226", "result": 29, "unit": "µM"}, {"measurement": "GI50", "setting": "[3]", "result": 30, "unit": "µM"}, {"measurement": "GI50", "setting": "Jurkat", "result": 54, "unit": "µM"}]}
{"compound": "Nc1ccc(-c2nc(-c3ccccc3)nc3[nH]nc(N)c23)cc1", "values": [{"measurement": "MIC", "setting": "Enterococcus raffinosus", "result": 82.8, "unit": "µM"}, {"measurement": "MIC", "setting": "Staphylococcus aureus", "result": 34.5, "unit": "µM"}]}
{"compound": "Clc1ccc(-c2nn(-c3ccccc3)c3ncncc23)cc1", "values": [{"measurement": "GI50", "setting": "NCI-H226", "result": 18, "unit": "µM"}, {"measurement": "GI50", "setting": "[3]", "result": 23, "unit": "µM"}, {"measurement": "GI50", "setting": "Jurkat", "result": 36, "unit": "µM"}]}
